Measurements: patent publication EP1277754B1, “IMIDAZOPYRIDINE DERIVATIVES” (YAMANOUCHI PHARMACEUTICAL CO. LTD., priority 2000, dated 2001)

Test system: HCT116 cells
Experiment: Colon cancer cell growth inhibition (Alamar Blue)
Assay type: cell-based
Conditions: incubation over 72 hours, result in words
Experimental: Test Example 2 Colon cancer cell growth inhibition
HCT116 cells from a colon cancer cell line were cultured in McCoy's 5A medium (GIBCO) supplemented with 10% fetal bovine serum. HCTI 16 cells were inoculated on a 96 well plate (5000 cells/well) followed by overnight incubation. The test compound diluted with the medium was added to the medium in a final concentration of 0.1 to 30µM (final DMSO concentration, 1%). After incubation for over 72 hours, Alamar Blue reagent was added to the medium. Two hours after the addition, a ratio of fluorescent intensity at an excitation wavelength of 530 nm to that at an emission wavelength of 590 nm was measured to determine the IC50.

Q: For `Cc1ccc([N+](=O)[O-])cc1S(=O)(=O)n1ccc(-c2c(C)nc3ccc(Br)cn23)n1` [Compound 6, 3-(6-Bromo-2-methylimidazo[1,2-a]pyridin-3-yl)-1H-pyrazol-1-yl 2-methyl-5-nitrophenyl sulfone], which “cancer cell growth inhibition activity” value is on record?
A: The value was “good cancer cell growth inhibition activity”.

Test system: A375 cells
Experiment: Melanoma cell growth inhibition (Alamar Blue)
Assay type: cell-based
Conditions: Homo sapiens, A-375, incubation over 46 hours
Experimental: A375 cells from a melanoma cell line were cultured in DMEM medium (GIBCO) supplemented with 10% fetal bovine serum. A375 cells at 10,000 cells/100µl were added to a 96 well plate which contained 1 µl/well of the test compounds (final concentration of 0.001 ~ 30µM). After incubation for over 46 hours, Alamar Blue reagent was added to the medium (10µl/well). Two hours after the addition, a ratio of fluorescent intensity at an excitation wavelength of 530 nm to that at an emission wavelength of 590 nm was measured to determine the IC50 of the test compounds in the same manner as in the above examples.

Q: How did the IC50 turn out when `Cc1ccc([N+](=O)[O-])cc1S(=O)(=O)n1ccc(-c2c(C)nc3ccc(Br)cn23)n1` [Compound 6, 3-(6-Bromo-2-methylimidazo[1,2-a]pyridin-3-yl)-1H-pyrazol-1-yl 2-methyl-5-nitrophenyl sulfone] was run?
A: The IC50 was < 1 µM.

Q: For `Cc1ccc([N+](=O)[O-])cc1S(=O)(=O)n1ccc(-c2cnc3ccc(Br)cn23)n1` [Compound 30, 3-(6-bromoimidazo[1,2-a]pyridin-3-yl)-1H-pyrazol-1-yl 2-methyl-5-nitrophenyl sulfone], which IC50 is on record?
A: The IC50 was < 1 µM.

Q: How did the IC50 turn out when `Cc1ccc([N+](=O)[O-])cc1S(=O)(=O)N(C)N=Cc1cnc2ccc(Br)cn12` [Compound 43, 2'-[(6-bromoimidazo[1,2-a]pyridin-3-yl)methylidene]-1',2-dimethyl-5-nitrobenzenesulfonohydrazide] was run?
A: The IC50 was < 1 µM.

Q: Which IC50 does the source give for `CCc1ccc([N+](=O)[O-])cc1S(=O)(=O)N(C)N=Cc1cnc2ccc(Br)cn12` [Compound 53, 2'-[(6-bromoimidazo[1,2-a]pyridin-3-yl)methylidene]-2-ethyl-1'-methyl-5-nitrobenzenesulfonohydrazide] here?
A: Its IC50 is < 1 µM.

Q: How did the IC50 turn out when `Cc1ccc(C#N)cc1S(=O)(=O)N(C)N=Cc1cnc2ccc(Br)cn12` [Compound 54, 3-({2-[(6-bromoimidazo[1,2-a]pyridin-3-yl)methylidene]-1-methylhydrazino}sulfonyl)-4-methylbenzonitrile] was run?
A: Its IC50 is < 1 µM.

Q: For `Cc1ccc([N+](=O)[O-])cc1S(=O)(=O)N(C)N=Cc1cnc2ccc(F)cn12` [Compound 57, 2'-[(6-fluoroimidazo[1,2-a]pyridin-3-yl)methylidene]-1',2-dimethyl-5-nitrobenzenesulfonohydrazide], which IC50 is on record?
A: Its IC50 is < 1 µM.

Q: With `CN(N=Cc1cnc2ccc(Cl)cn12)S(=O)(=O)c1cc([N+](=O)[O-])ccc1N` [Compound 59, 2-amino-2'-[(6-chloroimidazo[1,2-a]pyridin-3-yl)methylidene]-1'-methyl-5-nitrobenzenesulfonohydrazide] as the molecule, how does the IC50 read?
A: Its IC50 is < 1 µM.

Q: How did the IC50 turn out when `CN(N=Cc1cnc2ccc(Cl)cn12)S(=O)(=O)c1cc([N+](=O)[O-])ccc1OCC(F)(F)F` [Compound 60, 2'-[(6-chloroimidazo[1,2-a]pyridin-3-yl)methylidene]-1'-methyl-5-nitro-2-(2,2,2-trifluoroethoxy)benzenesulfonohydrazide] was run?
A: Its IC50 is < 1 µM.

Q: With `Cc1ccc([N+](=O)[O-])cc1S(=O)(=O)c1nc(-c2cnc3ccc(Cl)cn23)cs1` [Compound 65, 6-chloro-3-[2-(2-methyl-5-nitrobenzenesulfonyl)thiazol-4-yl]imidazo[1,2-a]pyridine] as the molecule, how does the IC50 read?
A: Its IC50 is < 1 µM.

Q: `Cc1ccc([N+](=O)[O-])cc1S(=O)(=O)N(CCN1CCOCC1)N=Cc1cnc2ccc(Br)cn12` [Compound 77, 6-bromo-3-{[(2-methyl-5-nitrobenzenesulfonyl)(2-morpholinoethyl)hydrazono]methyl}imidazo[1,2-a]pyridine] was tested. Which IC50 did it give?
A: Its IC50 is < 1 µM.

Q: Which IC50 does the source give for `Cc1ccc([N+](=O)[O-])cc1S(=O)(=O)N(C)N=Cc1cnc2ccc(Cl)cn12` [Compound 88, 6-chloro-3-{[(methyl)(2-methyl-5-nitrobenzenesulfonyl)hydrazono]methyl}imidazo[1,2-a]pyridine] here?
A: The IC50 was < 1 µM.

Q: `Cc1ccc([N+](=O)[O-])cc1S(=O)(=O)N(C)N=Cc1cnc2ccc(C#N)cn12` [Compound 93, 3-{[(methyl)(2-methyl-5-nitrobenzenesulfonyl)hydrazono]methyl}imidazo[1,2-a]pyridine-6-carbonitrile] was tested. Which IC50 did it give?
A: Its IC50 is < 1 µM.

Q: `Cc1ccc(C#N)cc1S(=O)(=O)N(C)N=Cc1cnc2ccc(F)cn12` [Compound 95, 5-cyano-2'-[(6-fluoroimidazo[1,2-a]pyridin-3-yl)methylidene]-1',2-dimethylbenzenesulfonohydrazide] was tested. Which IC50 did it give?
A: The IC50 was < 1 µM.

Q: With `Cc1ccc(C#N)cc1S(=O)(=O)N(C)N=Cc1cnc2ccc(C#N)cn12` [Compound 96, 5-cyano-2'-[(6-cyanoimidazo[1,2-a]pyridin-3-yl)methylidene]-1',2-dimethylbenzenesulfonohydrazide] as the molecule, how does the IC50 read?
A: The IC50 was < 1 µM.

Q: Which IC50 does the source give for `CN(N=Cc1cnc2ccc(Cl)cn12)S(=O)(=O)c1cc([N+](=O)[O-])ccc1-n1ccnc1` [Compound 112, 2'-[(6-chloroimidazo[1,2-a]pyridin-3-yl)methylidene]-2-(1H-imidazol-1-yl)-1'-methyl-5-nitrobenzenesulfonohydrazide] here?
A: Its IC50 is < 1 µM.

Q: With `CN(C)c1ccc([N+](=O)[O-])cc1S(=O)(=O)N(C)N=Cc1cnc2ccc(Cl)cn12` [Compound 113, 2'-[(6-chloroimidazo[1,2-a]pyridin-3-yl)methylidene]-2-dimethylamino-1'-methyl-5-nitrobenzenesulfonohydrazide] as the molecule, how does the IC50 read?
A: The IC50 was < 1 µM.

Same assay, conditions: incubation over 46 hours

Q: How did the IC50 turn out when `Cc1ccc2ncc(C=NN(C)S(=O)(=O)c3cc([N+](=O)[O-])ccc3C)n2c1` [Compound 99, 1'2-dimethyl-2'-[(6-methylimidazo[1,2-a]pyridin-3-yl)methylidene]-5-nitrobenzenesulfonohydrazide] was run?
A: Its IC50 is < 1 µM.
